Data on 6 compounds can be found in patent US4477664A, “Novel 1-(4-piperidiniobenzyl)-2,3-dioxopiperazine derivatives or acid addition salts thereof” (Toyama Chemical Co., Ltd., priority 1979, dated 1984).

Values after ≈ are worked out from the molar mass of the structure shown. Where only a bound is given, the exact number is not on record here.

Data set [1] deals with HeLa S3 cells. The data set is described as follows: MIC value against HeLa S3 cells (microplate method). Type of data set: cell-based. To be noted: Homo sapiens, 96 h, 2×10^4 cells/ml, 4 days, Giemsa staining. From the text:
(§1) a. MIC value against HeLa S3 cells and Ehrlich cells (microplate method) Number of cells: 2×10^4 cells/ml Culture medium: Eagle's MEM+20% calf embryonic serum Culture time: 4 days Judgement: Giemsa staining

The subject of data set [2] is Ehrlich cells. Kind of data set: MIC value against Ehrlich cells (microplate method). It counts as cell-based. To be noted: 96 h, 2×10^4 cells/ml, 4 days, Giemsa staining.
From the text: as §1

The subject of data set [3] is L-1210 ascites cells. The data set is described as follows: Effect on L-1210 leukemia (i): intraperitoneal inoculation, mean survival days. Type of data set: in vivo, BDF1-strain mice. The conditions noted are these: 50 mg/kg. The method, then:
(i) L-1210 ascites cells (1×10^5 cells/head) were inoculated intraperitoneally into BDF1 -strain mice (female, 6 weeks old, each group consisting of 4 mice), and after 24 hours, the intraperitoneal administration of a test drug was started and effected once a day. The effect thereof was judged from the mean survival days. The test drug was used in the form of a solution or suspension in a saline solution or a 0.3% carboxymethyl cellulose-containing saline solution.
T/C was calculated in the same manner as in above b (i).

Data set [4] is described as follows: Acute toxicity. To be noted: mouse, in vivo, ip. From the text: The test drugs were used in the form of a solution or suspension in a saline solution or a 0.3% carboxymethyl cellulose-containing saline solution.
In data set [5] the test system is Ehrlich ascites carcinoma cells. Kind of data set: Effect on Ehrlich carcinoma (ii): subcutaneous inoculation at inguinal region, mean tumor weight. Type of data set: in vivo, ICR-strain mice. The conditions noted are these: intraperitoneally, once a day for 5 days, judgement day 13. The protocol:
(ii) Ehrlich ascites carcinoma cells (4×10^6 cells/head) were inoculated subcutaneously at the inguinal region into ICR-strain mice (female, 6 to 7 weeks old, each group consisting of 5 or 4 mice), and after 24 hours, the intraperitaneal or oral administration of a test drug was started and effected once a day for 5 days. The effect thereof was judged from the mean weight of tumor on the 13th or 15th day, respectively.
The test drug was used in the form of a solution or suspension in a saline solution or a 0.3% carboxymethyl cellulose-containing saline solution. [formula]

Data set [6] shares this test system. The data set is described as follows: Effect on Ehrlich carcinoma (i): intraperitoneal inoculation, mean survival days. The conditions noted are these: Mus musculus, ip, 168 h, once a day for 7 days, read-out: T/C (mean survival days). Type of data set: in vivo, ICR-strain mice. The protocol:
(i) Ehrlich ascites carcinoma cells (1×10^6 cells/head) were inoculated intraperitoneally into ICR-strain mice (female, 6 to 7 weeks old, each group consisting of 5 or 4 mice), and after 24 hours, the […] The effect thereof was judged from the mean survival days.
The test drugs were used in the form of a solution or suspension in a saline solution or a 0.3% carboxymethyl cellulose-containing saline solution. [formula]

Data set [7] concerns Sarcoma 180 ascites cells. The data set is described as follows: Effect on Sarcoma 180 carcinoma: intraperitoneal inoculation, mean survival days. It counts as in vivo, ICR-strain mice. To be noted: 200 mg/kg, once a day for 7 days. The method, then: Sarcoma 180 ascites cells (1×10^6 cells/head) were inocualted intraperitoneally into ICR-strain mice (female, 6 weeks old, each group consisting of 4 or 5 mice), and after 24 hours, the intraperitoneal administration of a test drug was started, and effected once a day for 7 days. The effect thereof was judged from the mean survival days. The test drug was used in the form of a solution or suspension in a saline solution or a 0.3% carboxymethyl cellulose-containing saline solution. [formula]

Data set [8] concerns Ehrlich ascites carcinoma cells. The data set is described as follows: Effect on Ehrlich carcinoma (iii): subcutaneous inoculation at right armpit, mean tumor weight. Type of data set: in vivo, ICR-strain mice. To be noted: 100 mg/kg, orally, once a day for 7 days, 14th day. The method, then: (iii) Ehrlich ascites carcinoma cells (4×10^6 cells/head) were inoculated subcutaneously at the right armpit region into ICR-strain mice (female, 7 weeks old, each group consisting of 6 or 7 mice), and after 24 hours, the oral administration or subcutaneous administration at the dorsal region of a test drug was started, and effected once a day for 7 days. The effect thereof was judged from the mean weight of the tumor on the 14th day. The test drug was used in the form of a solution or suspension in a saline solution or a 0.3% carboxymethyl cellulose-containing saline solution.
T/C was calculated in the same manner as in above (ii).

[9] abbreviates: intraperitoneal, once, male mice, observed for 7 days.

In general, MIC refers to the lowest concentration found to suppress growth. Low values mean a more susceptible organism, high ones a less susceptible organism. Broadly, the LD50 is the dose expected to kill half of the subjects tested. A lower LD50 goes with greater toxicity. Regarding `Cc1cc(Nc2ccc(CN3CCN(Cc4ccccc4)C(=O)C3=O)cc2)ncc1N` [Compound 43], the MIC in data set [1] and in data set [2] was < 0.05 µg/mL in each case. In data set [3] (7 administrations), the “T/C (mean survival days)” value came out at 143%. The LD50 at 168 h in data set [4] (setting [9]) is > 200 mg/kg.
Take `CCN(CC)c1ccc(CN2CCN(CCN)C(=O)C2=O)cc1` [Compound 37]: the MIC in data set [1] and in data set [2] was 25 µg/mL (≈ 78.5 µM) each time. The figures for the “T/C (mean tumor weight)” value in data set [5] (25 mg/kg), in data set [5] (50 mg/kg) and in data set [5] (100 mg/kg) were 54%, 52% and 65%, respectively.
On to `CCCCCCN1CCN(Cc2ccc(N(CC)CC)cc2)C(=O)C1=O` [Compound 26], for which the MIC in data set [1] and in data set [2] was 3.13 µg/mL (≈ 8.71 µM) each time. Besides, the response vs control in vivo at 40 mg/kg in data set [6] (40 mg/kg) is 157%. Also, the “T/C (mean tumor weight)” value in data set [5] (6.25 mg/kg) was determined as 64%; in data set [5] (12.5 mg/kg) it was 67%; in data set [5] (25 mg/kg), 61%.
For `CCCCCCN1CCN(Cc2ccc(Nc3ccccn3)cc2)C(=O)C1=O` [Compound 1], the MIC in data set [1] and in data set [2] was 0.2 µg/mL (≈ 0.526 µM) throughout. In addition, in data set [6] (200 mg/kg), the response vs control in vivo at 200 mg/kg is > 221%. The “T/C (mean survival days)” value in data set [7] is listed as > 151.6%. In data set [7] (35 days), the “Survival Ratio in Days Shown in Parenthesis” value is given as 2/4. Moreover, the LD50 at 168 h in data set [4] was > 500 mg/kg.
Consider `Cc1cc(Nc2ccc(CN3CCN(Cc4ccccc4)C(=O)C3=O)cc2)nc(C)c1N` [Compound 44], for which the MIC in data set [1] and in data set [2] was 0.78 µg/mL (≈ 1.82 µM) each time. The “T/C (mean survival days)” value in data set [3] (3 administrations) was 137%. For the same compound, the LD50 at 168 h in data set [4] (setting [9]) is > 200 mg/kg.
On to `Cc1nc(Nc2ccc(CN3CCN(Cc4ccccc4)C(=O)C3=O)cc2)ccc1N` [Compound 42], for which the MIC in data set [1] and in data set [2] was < 0.05 µg/mL each time. Also, the response vs control in vivo at 50 mg/kg in data set [6] (50 mg/kg) came out at 149%. The “T/C (mean tumor weight)” value in data set [8] is 54%. Moreover, in data set [3] (7 administrations), the “T/C (mean survival days)” value turned out to be 148%. The LD50 at 168 h in data set [4] (setting [9]) was > 200 mg/kg.
